# Test results as given in patent US10919785B2, “Hydraulic conveyor of floating objects provided with a device for sanitising conveying composition, plant provided with such a conveyor and sanitising method” (MAF AGROBOTIC, priority 2016, dated 2021).
# Assay: Example 5: pilot device, degradation of four pesticides (FIG. 6)
# Type: physicochemical
# Conditions: initial boscalid 250, thiacloprid 100, fludioxonil 100, pyraclostrobin 125 μg/l; initial hydrogen peroxide 2 μg/l; 6 m^3/h, five lamps on
# Source text: A semi-industrial pilot device in accordance with one aspect of the invention comprises a tank for recirculating water to be treated of a volume of 1000 l, a circulation pump ensuring a circulation flow of the water to be treated in a sanitising device with a flow rate between 4 m^3 to 8 m^3/h. The sanitising device comprises a photolysis chamber comprising an inlet for water from the recirculation tank and an outlet for sanitised water directed to the recirculation tank. The photolysis chamber is formed of a rigid tubular envelope, of which the external wall is opaque to light and forming an inner space suitable for receiving five fluorescent tubes with a longitudinal axis extending in parallel with the longitudinal axis of the rigid tubular envelope. The inner volume of the decontamination reactor is in the order of […].
# The five fluorescent tubes are tubes of 200 W emitting light at a wavelength of 254 nm and arranged longitudinally in the tubular envelope at the five points of a regular pentagon and in contact with the water to be treated flowing in the photolysis chamber. In this configuration of the sanitising device, the water to be sanitised flowing in contact with the five fluorescent tubes is subjected to substantially homogeneous illumination in the order of 500 mJ/cm^2 for a circulation flow rate of water to be sanitised in the order of 6 m^3/h. The semi-industrial pilot device also comprises a tank for storing an aqueous solution of hydrogen peroxide (H2O2) provided with a pump for distributing said solution in the circulation flow of water to be sanitised issuing into the circuit of water to be sanitised upstream of and in proximity to the photolysis chamber. The concentration of the hydrogen peroxide in the aqueous solution of hydrogen peroxide is between 2 m g/l and 13 mg/l. The set-point flow rate of the pump for distributing solution of H2O2 is kept at 4 l/h.
# A study was carried out in a semi-industrial pilot device as described above on the degradation of boscalid, thiacloprid, fludioxonil and pyraclostrobin. […]
row,SMILES,degraded within 1 hour
1,N#Cc1c[nH]cc1-c1cccc2c1OC(F)(F)O2 [fludioxonil],90%
2,COC(=O)N(OC)c1ccccc1COc1ccn(-c2ccc(Cl)cc2)n1 [pyraclostrobin],85%
3,N#C/N=C1\SCCN1Cc1ccc(Cl)nc1 [thiacloprid],more than 95%
